From patent publication US6770740B1, “Crosslinked DNA condesate compositions and gene delivery methods” (The Regents of the University of Michigan, priority 1999, dated 2004)
Where no end group is shown, it is not given here. The star is where a group is joined. Carboxymethyl = O=C(O)C*

Columns and labels:
[1] = QELS particle size and zeta potential of PEG-peptide DNA condensates and co-condensates, Example 1; format: physicochemical; details: charge ratio of 1.8:1 or higher; 50 μg/ml DNA in Hepes
Experimental: The particle size of peptide DNA condensates were analyzed at a DNA concentration of 50 μg/ml in Hepes by quasielastic light scattering (QELS). The particle surface change was determined by zeta potential analysis using a Brookhaven ZetaPlus™ (Brookhaven Instruments).
DNA co-condensates were prepared by add-mixing AlkCWK18 and PEG-VS-CWK18 in ratios ranging from 0 to 100 mol %, and condensing DNA at a charge ratio of 2.3:1 as described above. To establish the mol ratio of peptides bound to DNA, condensates were dialyzed in a fixed volume (0.5 ml) dialyzer for 75 h against water using a 100,000 MWCO membrane. Peptide DNA condensates in the retentate (0.5 ml) were dissociated by adding 50 μl of 5 M sodium chloride in 0.1% TFA. AlkCWK18 and PEG-VS-CWK18 were quantified by injecting 1 nmol of peptide (100 μl) onto analytical RP-HPLC eluted with 0.1% TFA and a gradient of acetonitrile (5 to 65% over 30 min) while detecting tryptophan by fluorescence (λex 280 nm, λem 350 nm). The peak integration areas were used to quantify AlkCWK18 and PEG-VS-CWK18 with reference to standard curves developed for each peptide.

[2] = Solubility of peptide DNA condensates: particle size as a function of DNA concentration; format: physicochemical; details: when increasing DNA concentration from 50 to 500 μg/ml
[3] = test system: HepG2 cells; assay: Luciferase reporter gene expression in HepG2 cells, Example 5; format: cell-based
Experimental: HepG2 cells (1.5×10^5) were plated on 6×35 mm wells and grown to 40-70% confluency in MEM supplemented with 10% FBS, penicillin and streptomycin (10,000 U/ml), sodium pyruvate (100 mM), and L-glutamine (200 mM). Transfections were performed in MEM (2 ml per 35 mm well) with 2% FBS and 80 μM chloroquine. Peptide DNA condensates (10 μg of DNA in 0.2 ml HBM) were added dropwise to triplicate wells. After a 5 h incubation at 37° C., the media was replaced with MEM supplemented with 10% FBS. After 24 h, cells were washed twice with ice-cold phosphate buffered saline (calcium and magnesium free) and then treated with 0.5 ml of ice-cold lysis buffer (25 mM Tris chloride pH 7.8, 1 mM EDTA, 8 mM magnesium chloride, 1% Triton X-100, 1 mM DTT) for 10 min. The cell lysate was scraped, transferred to 1.5 ml microcentrifuge tubes, and centrifuged for 7 min at 13,000 g at 4° C. to pellet debris.
Lysis buffer (300 μl), sodium-ATP (4 μl of a 180 mM solution, pH 7, 4° C.) and cell lysate (100 μl, 4° C.) were combined in a test tube, briefly mixed and immediately placed in the luminometer. Luciferase relative light units (RLU) were recorded on a Lumat™ LB 9501 (Berthold systems, Germany) with 10 sec integration after automatic injection of 100 μl of 0.5 mM D-luciferin (prepared fresh in lysis buffer without DTT). The RLU were converted in fmol using a standard curve generated by adding a known amount of luciferase (0.01 to 100 fmols with specific activity of 2.5 nU/fmol) to 35 mm wells containing 40-70% confluent HepG2 cells. The cells were processed as described above resulting in a standard curve with an average slope of 7.8×10^6 RLU per fmol of enzyme. Protein concentrations were measured by Bradford assay using bovine serum albumin as a standard (Bradford, 1976). The amount of luciferase recovered in each sample was normalized to milligrams of protein and reported as the mean and standard deviation obtained from triplicate transfections.
LipofectAce™ (Gibco BRL, 1:2.5 w/w dimethyl diotadecylammonium bromide and dioleoyl phosphatidylethanolamine) was used to mediate gene transfection according to the manufacturer's instructions. The ratio of DNA to LepofectAce™ was optimized for HepG2 cells. An optimal DNA/LipofectAce™ ratio was achieved by dissolving 10 μg of DNA in 100 μl serum free media (SFM) followed by adding 60 μl of LipofectAce™ prepared in 140 μl of SFM. The LipfectAce™ DNA complex was then diluted with 1.7 ml of SFM and used to transfect HepG2 cells for 5 h followed by replacing the transfecting media with media supplemented with 10% FBS. The cells were incubated for a total of 24 h, harvested and analyzed for luciferase as described above.

Substance	mean diameter of DNA condensates [1] [nm]	particle size of DNA condensates [2] [nm]	chloroquine enhancement of gene expression relative to that of AlkCWK18 DNA condensates [3]	increase in gene expression over polylysine1007 or LipofectAce ([3]; HepG2) [fold]	increase in luciferase gene expression relative to AlkCWK18 DNA condensates ([3]; HepG2, 80 μM chloroquine, 24 h) [fold]
Alk-S-Cys-Trp-Lys18 (C(Carboxymethyl)WKKKKKKKKKKKKKKKKKK) [AlkCWK18]	60	60 to 400			
Cys-Trp-Lys17-Cys (CWKKKKKKKKKKKKKKKKKC) [Peptide II]			approximately 5 fold	5	60
